Publication PMC10243163, “A frog‐derived antimicrobial peptide as a potential anti‐biofilm agent in combating Staphylococcus aureus skin infection” (Journal of Cellular and Molecular Medicine, 2023)
Values after ≈ are worked out from the molar mass of the structure shown. Read-outs that look alike come from different tables or passages of the source. Positions of bridges follow the written chain, without caps; N, C: chain ends. Residues, ends and D or L forms follow the SMILES beside them. No end group written: not given here.

Experiments:
E. faecalis NCTC 12697 = format: cell-based
E. coli ATCC 8739 = format: cell-based, Escherichia coli
Method: (§1) Antimicrobial assays were conducted using standard broth micro‐dilutions, as mentioned previously.[11] Gram‐positive bacteria S. aureus (ATCC 6538), Methicillin‐resistant S. aureus (MRSA; NCTC 12493), […] (NCTC 12697), Gram‐negative bacteria Escherichia coli (ATCC 8739), Klebsiella pneumoniae (ATCC 43816), Pseudomonas aeruginosa (ATCC 9027), Acinetobacter baumannii (ATCC BAA 747), and yeast, Candida albicans (ATCC 10231) were used in the test. The experiments were conducted in three independent runs.

S. aureus ATCC 6538 = format: cell-based, Staphylococcus aureus
Method: as §1

K. pneumoniae ATCC 43816 = format: cell-based, Klebsiella pneumoniae
Method: as §1

horse erythrocytes = assay: Haemolytic activity; format: cell-based; conditions: 128 μM peptide; horse erythrocytes 2% v/v, 37°C, 2 h; 0.1% Triton X‐100 positive control; absorbance 570 nm; three independent runs
Method: The haemolytic activity of peptides was conducted using horse erythrocytes (2%, v/v). Peptide solutions were mixed with washed horse erythrocyte suspension at 37°C for 2 h. Triton X‐100 (0.1%) was used as a positive control. The mixture was then centrifuged at 930 g for 5 min. The absorbance of the supernatants was detected at 570 nm. The haemolysis rate was calculated using the formula: Haemolysis%=Sample group−negative group/positive group−negative group×100%.
This experiment was performed in three independent runs.

[1] = system: Gram‐positive and Gram‐negative test bacteria; format: cell-based
Method: as §1

C. albicans ATCC 10231 = format: cell-based, Candida albicans
Method: as §1

P. aeruginosa ATCC 9027 = format: cell-based, Pseudomonas aeruginosa
Method: as §1

MRSA NCTC 12493 = format: cell-based, Methicillin‐resistant S. aureus
Method: as §1

[2] = system: Gram‐positive and Gram‐negative test bacteria; format: cell-based; conditions: geometric mean of MICs against the three Gram‐negative strains

Row | Compound | MBC (E. faecalis NCTC 12697) [µM] | MIC (E. faecalis NCTC 12697) [µM] | MBC (E. coli ATCC 8739) [µM] | MIC (E. coli ATCC 8739) [µM] | MBC (S. aureus ATCC 6538) [µM] | MIC (S. aureus ATCC 6538) [µM] | MBC (K. pneumoniae ATCC 43816) [µM] | MIC (K. pneumoniae ATCC 43816) [µM] | Haemolysis (horse erythrocytes) | MBC (C. albicans ATCC 10231) [µM] | MIC (C. albicans ATCC 10231) [µM] | MBC (P. aeruginosa ATCC 9027) [µM] | MIC (P. aeruginosa ATCC 9027) [µM] | MBC (MRSA NCTC 12493) [µM] | MIC (MRSA NCTC 12493) [µM] | GM MIC, G+ [1] | GM MIC, G− [1] | GM MIC, total bacteria [1] | also measured
1 | CC[C@H](C)[C@@H]1NC(=O)[C@H](C)NC(=O)[C@@H](NC(=O)[C@H](CC(C)C)NC(=O)[C@@H](NC(=O)[C@H](CCCCN)NC(=O)[C@@H]2CCCN2C(=O)[C@H](CC(C)C)NC(=O)[C@H](Cc2ccccc2)NC(=O)[C@H](CC(N)=O)NC(=O)[C@H](C)NC(=O)[C@H](C)NC(=O)[C@H](CC(C)C)NC(=O)CNC(=O)[C@H](C)NC(=O)[C@@H](NC(=O)[C@H](CC(C)C)NC(=O)[C@@H]2CCCN2C(=O)[C@@H](N)Cc2ccccc2)[C@@H](C)CC)[C@@H](C)CC)CSSC[C@@H](C(=O)O)NC(=O)[C@H](CCCCN)NC(=O)[C@H](CCCNC(=N)N)NC(=O)[C@H](C)NC1=O [OG9a] (H-FPLIAGLAANFLPKILCAIARKC-OH; disulfide 17-23) | 16 (≈ 39.1 µg/mL) | 16 (≈ 39.1 µg/mL) | 8 (≈ 19.5 µg/mL) | 8 (≈ 19.5 µg/mL) | 8 (≈ 19.5 µg/mL) | 4 (≈ 9.77 µg/mL) | 16 (≈ 39.1 µg/mL) | 16 (≈ 39.1 µg/mL) | 90% | > 128 | > 128 | > 128 | > 128 | 16 (≈ 39.1 µg/mL) | 16 (≈ 39.1 µg/mL) |  |  |  | GM MIC, total bacteria ([1]; geometric mean of MICs against all test bacteria): 20.2 µM; GM MIC, G+ ([1]; geometric mean of MICs against the three Gram‐positive strains): 10.1 µM; GM MIC, G− [2]: 40.3 µM
2 | CC[C@H](C)[C@@H]1NC(=O)CNC(=O)[C@@H](NC(=O)[C@H](CC(C)C)NC(=O)[C@@H](NC(=O)[C@H](CCCCN)NC(=O)[C@@H]2CCCN2C(=O)[C@H](CC(C)C)NC(=O)[C@H](Cc2ccccc2)NC(=O)[C@H](CCCCN)NC(=O)[C@H](C)NC(=O)[C@H](C)NC(=O)[C@H](CC(C)C)NC(=O)[C@H](CCCNC(=N)N)NC(=O)[C@H](C)NC(=O)[C@@H](NC(=O)[C@H](CC(C)C)NC(=O)[C@@H]2CCCN2C(=O)[C@@H](N)Cc2ccccc2)[C@@H](C)CC)[C@@H](C)CC)CSSC[C@@H](C(=O)O)NC(=O)[C@H](CCCCN)NC(=O)[C@H](CC(N)=O)NC(=O)[C@H](C)NC1=O [OG9c] (H-FPLIARLAAKFLPKILCGIANKC-OH; disulfide 17-23) | 16 (≈ 40 µg/mL) | 16 (≈ 40 µg/mL) | 4 (≈ 10 µg/mL) | 4 (≈ 10 µg/mL) | 4 (≈ 10 µg/mL) | 4 (≈ 10 µg/mL) | 8 (≈ 20 µg/mL) | 8 (≈ 20 µg/mL) |  | 64 (≈ 160 µg/mL) | 64 (≈ 160 µg/mL) | 16 (≈ 40 µg/mL) | 16 (≈ 40 µg/mL) | 8 (≈ 20 µg/mL) | 8 (≈ 20 µg/mL) | 8/8/8 μM | 8/8/8 μM | 8/8/8 μM | 
3 | FPLIAGLAANFLPKIL [OG9‐De] | > 128 | > 128 | > 128 | > 128 | > 128 | > 128 | > 128 | > 128 | no apparent haemolysis | > 128 | > 128 | > 128 | > 128 | > 128 | > 128 |  |  |  | 
4 | FPLIAGLAANFLPKIL-NH2 [OG9‐De‐NH2] | > 128 | > 128 | > 128 | > 128 | > 128 | > 128 | > 128 | > 128 | no apparent haemolysis | > 128 | > 128 | > 128 | > 128 | > 128 | > 128 |  |  |  | 
5 | FPLIARLAAKFLPKIL [OG9c‐De] | 64 | 64 | 16 | 16 | 16 | 16 | 32 | 32 |  | 16 | 16 | 64 | 16 | 16 | 16 | 25.4 µM | 20.2 µM | 22.6 µM | 
